Article PMC7767178 (International Journal of Molecular Sciences, 2020)
Several values for one entry are separate records, joined by “and”; a condition that tells them apart may be missing. Identical values can stand only once. Like-named read-outs stand apart in the source and are kept apart here. Positions of bridges follow the written chain, without caps; N, C: chain ends. Residues, ends and D or L forms follow the SMILES beside them.

Columns and labels:
[1] = system: A. veronii ACCC61732; assay: Organ injury in peritonitis model, histology; format: in vivo, mice; conditions: peptides 5 μmol/kg, CIP 1 μmol/kg
Method: Livers, kidneys, spleens, and lungs were removed from mice at 24 h and five days post treatment to evaluate the organ injury. After washing with PBS, the organs were fixed in 4% paraform-aldehyde for 24 h at 4 °C, dehydrated by a graded series of ethanol (75‒95%), and infiltrated with xylene. The organs were then embedded in paraffin wax, sectioned, and stained with hematoxylin and eosin. Finally, the tissue samples were fixed and observed by the light microscope. The CIP-treated mice served as the positive control and the PBS group served as the negative control.

[2] = system: A. veronii ACCC61732; assay: Resistance development, 30 serial passages; format: cell-based; conditions: A. veronii ACCC61732, 30 passages (30 days)
Method: The development of bacterial resistance of peptides was performed by the MIC assays. […] GEN, CIP, and PMB were used as controls. […] The MIC values were measured as described above. The serial passaging was repeated for 30 days.

[3] = system: A. veronii ACCC61732; assay: Mouse peritonitis model, bacterial translocation to organs; format: in vivo, ICR mice; conditions: 5 μmol/kg, 24 h post-treatment, colony counting
Method: (§1) Sera and organs (livers, kidneys, spleens, and lungs) were collected from the mice at 24 h post-treatment. The organs were homogenized in sterile PBS to evaluate bacterial translocation by colony counting. The levels of cytokines (TNF-α, IL-1β, IL-6, and IL-10) in sera were detected using the ELISA kits.

[4] = system: Salmonella typhimurium ATCC14028; format: cell-based
[5] = system: TNF-α; assay: Serum cytokine, ELISA, peritonitis model; format: in vivo; conditions: 5 μmol/kg, 24 h after treatment, range over mice
Method: as §1

[6] = system: Staphylococcus aureus ATCC43300; assay: microbe, parasite or virus in culture; format: cell-based
Excerpt: (§2) All experiments were repeated three times.

[7] = system: E. coli CVCC1515; assay: microbe, parasite or virus in culture; format: cell-based
Excerpt: as §2

[8] = system: S. pullorum CVCC533; assay: microbe, parasite or virus in culture; format: cell-based
Excerpt: as §2

[9] = system: S. enteritidis CVCC3377; assay: microbe, parasite or virus in culture; format: cell-based
Excerpt: as §2

[10] = system: S. pullorum CVCC1789; assay: microbe, parasite or virus in culture; format: cell-based
Excerpt: as §2

[11] = system: S. pullorum CVCC1809; assay: microbe, parasite or virus in culture; format: cell-based; conditions: S. pullorum CVCC1809, broth dilution, 37 °C, 16–18 h, three experiments
Excerpt: as §2

[12] = system: E. coli CVCC25922; assay: microbe, parasite or virus in culture; format: cell-based; conditions: E. coli CVCC25922, broth dilution, 37 °C, 16–18 h, three experiments
Excerpt: as §2

[13] = system: Escherichia coli CVCC195; assay: microbe, parasite or virus in culture; format: cell-based; conditions: Escherichia coli CVCC195, broth dilution, 37 °C, 16–18 h, three experiments
Excerpt: as §2

[14] = system: Candida albicans CMCC98001; assay: microbe, parasite or virus in culture; format: cell-based; conditions: CMCC98001; read-out: MIC
Excerpt: as §2

[15] = system: A. veronii X-1-06909; assay: microbe, parasite or virus in culture; format: cell-based
Excerpt: as §2

[16] = system: A. veronii ACCC61732 in biofilm; format: cell-based; conditions: 2 h
Method: The mid-log phase A. veronii ACCC61732 cells (1 × 10^8 CFU/mL) were inoculated into in the 96-well plates and cultured for 24 h at 37 °C. The plates were washed twice with PBS. […] PBS was used as the negative control. The plates were treated with ultrasound for 5 min and the viable bacteria were counted on the TSA plates.

[17] = system: A. veronii ATCC35624; format: cell-based
[18] = system: A. veronii ACCC61732; assay: Post-antibiotic effect (PAE); format: cell-based; conditions: for PAE: 2 h exposure, 1000-fold dilution, 37 °C, triplicate; for PAEs, range over 1×–4× MIC: 1× to 4× MIC
Method: The samples were taken from flasks for counting each hour until bacterial cultures became turbid. The untreated bacteria severed as controls. The PAE was calculated using the following equation: PAE = T − C, where T is the time (h) required for the CFU in the test culture to increase by 10-fold from the count immediately after the drug removal and C is the corresponding time (h) for the control. The experiment was performed in triplicate.

[19] = system: A. veronii ACCC61732; assay: Time-killing curves; format: cell-based; conditions: 2× MIC; 1 × 10^5 CFU/mL, colony counting, 0–24 h
Method: Time-killing curves were performed as previously described. […] The sample of 100 μL was taken from each flask at 0, 0.5, 1, 2, 4, 6, 8, 10, 20, and 24 h, respectively, and serially diluted for colony counting. PBS and CIP were used as the negative and positive control, respectively.

[20] = system: E. coli CVCCO157; assay: MIC, microtiter broth dilution; format: cell-based; conditions: 37 °C, 16–18 h, three experiments
Excerpt: as §2

[21] = system: Salmonella; conditions: range over the strains of Table 2
[22] = Salmonella typhimurium ATCC14028, broth dilution, 37 °C, 16–18 h, three experiments
[23] = Staphylococcus aureus ATCC43300, broth dilution, 37 °C, 16–18 h, three experiments
[24] = E. coli CVCC1515, broth dilution, 37 °C, 16–18 h, three experiments
[25] = S. pullorum CVCC533, broth dilution, 37 °C, 16–18 h, three experiments
[26] = S. enteritidis CVCC3377, broth dilution, 37 °C, 16–18 h, three experiments
[27] = S. pullorum CVCC1789, broth dilution, 37 °C, 16–18 h, three experiments
[28] = A. veronii X-1-06909, broth dilution, 37 °C, 16–18 h, three experiments
[29] = A. veronii ATCC35624, broth dilution, 37 °C, 16–18 h, three experiments

Row | SMILES | effect on injury of liver, spleen, kidney and lung [1] | increase of MIC after 30 serial passages [2] | reduction of bacteria in kidneys [3] [%] | reduction of bacteria in livers [3] [%] | reduction of bacteria in lungs [3] [%] | reduction of bacteria in spleens [3] [%] | MIC [4, 22] [µg/mL] | MIC [6, 23] [µg/mL] | MIC ([7]; CVCC1515, read-out: MIC) [µM] | MIC [7, 24] [µg/mL] | MIC [8, 25] [µg/mL] | MIC ([9]; CVCC3377, read-out: MIC) [µM] | MIC [9, 26] [µg/mL] | MIC ([10]; CVCC1789, read-out: MIC) [µM] | MIC [10, 27] [µg/mL] | MIC [11] [µg/mL] | MIC [12] [µg/mL] | MIC [13] [µg/mL] | MIC [14] [µM] | MIC [15, 28] [µg/mL] | other results
1 | CC(C)[C@@H]1NC(=O)CNC(=O)[C@H](CC(N)=O)NC(=O)[C@H](CCCNC(=N)N)NC(=O)[C@H](Cc2ccc(O)cc2)NC(=O)[C@H](C(C)C)NC(=O)[C@@H](NC(=O)[C@@H](NC(=O)[C@H](CC(N)=O)NC(=O)[C@H](Cc2c[nH]c3ccccc23)NC(=O)[C@H](C)NC(=O)[C@H](Cc2ccccc2)NC(=O)CN)C(C)C)CSSC[C@@H](C(=O)N[C@@H](Cc2cnc[nH]2)C(=O)N[C@@H](CCCNC(=N)N)C(=O)N[C@@H](CCCNC(=N)N)C(=O)N[C@@H](C)C(=O)N[C@@H](CC(N)=O)C(N)=O)NC(=O)[C@H](C(C)C)NC(=O)[C@H](CCCNC(=N)N)NC1=O [N6NH2] | remarkably alleviated the injury of the liver and spleen | one-fold | 80.52 | 72.94 | 71.89 | 77.86 | 4 | 16 | 0.81 | 2 | 4 | 0.81 | 2 | 3.23 | 8 | 4 | 4 | 4 | >52 | 32 | serum level of TNF-α [5]: 40.65 to 55.67 pg/mL; MIC ([6]; ATCC43300, read-out: MIC): 6.46 µM; MIC ([15]; read-out: MIC): 12.9 µM; bacteria in biofilm killed [16]; 8: 65.49%; bacteria in biofilm killed [16]; 16: 75.36%; MIC [17, 29]: 8 µg/mL; MIC ([17]; ATCC35624): 3.23 µM; PAE ([18]; 1× MIC): 0.69 ± 0.01 h; PAEs, range over 1×–4× MIC [18]: 0.69 to 1.17 h; PAE ([18]; 2× MIC): 0.7 ± 0.01 h; PAE ([18]; 4× MIC): 1.17 ± 0.22 h; time to completely kill A. veronii ACCC61732 [19]: 8 h; MIC [20]: 4 µg/mL
2 | CC(C)[C@@H]1NC(=O)CNC(=O)[C@H](CC(N)=O)NC(=O)[C@H](CCCNC(=N)N)NC(=O)[C@H](Cc2ccc(O)cc2)NC(=O)[C@H](C(C)C)NC(=O)[C@@H](NC(=O)[C@@H](NC(=O)[C@H](CC(N)=O)NC(=O)[C@H](Cc2c[nH]c3ccccc23)NC(=O)[C@H](C)NC(=O)[C@H](Cc2ccccc2)NC(=O)CN)C(C)C)CSSC[C@@H](C(=O)N[C@@H](Cc2c[nH]cn2)C(=O)N[C@@H](CCCNC(=N)N)C(=O)N2CCC[C@H]2C(=O)N[C@@H](C)C(=O)N[C@@H](CC(N)=O)C(N)=O)NC(=O)[C@H](C(C)C)NC(=O)[C@H](CCCNC(=N)N)NC1=O [N6PNH2] (H-GFAWNVCVYRNGVRVCHRPAN-NH2; disulfide 7-16 (inferred)) | worst therapeutic effect | three-fold | 18.36 | 31.54 | 15.92 | 28.47 | 16 | >64 | 1.66 | 4 | 32 | 0.83 | 2 | 6.62 | 16 | 8 | 8 | 8 | >52.98 | 64 | MIC ([4]; ATCC14028): 6.62 µM; MIC ([8]; CVCC533, read-out: MIC): 13.25 µM; MIC ([11]; read-out: MIC): 3.31 µM; MIC ([12]; read-out: MIC): 3.31 µM; MIC ([13]; read-out: MIC): 3.31 µM; MIC ([15]; read-out: MIC): 26.49 µM; bacteria in biofilm killed [16]; 8: 57.99%; bacteria in biofilm killed [16]; 16: 67.44%; MIC [17, 29]: 64 µg/mL; MIC ([17]; ATCC35624): 26.49 µM; PAE ([18]; 1× MIC): 0.52 ± 0.01 h; PAEs, range over 1×–4× MIC [18]: 0.52 to 0.68 h; PAE ([18]; 2× MIC): 0.62 ± 0.01 h; PAE ([18]; 4× MIC): 0.68 h and 0.68 ± 0.01 h; time to completely kill A. veronii ACCC61732 [19]: 2 h; MIC [20]: 8 µg/mL; MIC ([20]; read-out: MIC): 3.31 µM; MIC values against Salmonella [21]: 0.83 to 13.25 µM
